Test results taken from the METLIN SMRT retention time set (Domingo-Almenara et al. 2019).

Assay: gradient 5% acetonitrile 3 min, to 50% in 2 min, to 85% in 15 min, held 3 min, 100 µL/min
Settings: column: Zorbax Extend-C18 2.1 x 50 mm; eluents: water / acetonitrile, 0.1% formic acid
Method in brief: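 Data were gathered over 3 months by HPLC coupled to a quadrupole time-of-flight mass spectrometer, operated in positive and negative ionization mode. Mixtures of ~100 pure standards ran on a Zorbax Extend-C18 column (2.1 × 50 mm, 1.8 μm) at 100 μL/min, with water and acetonitrile each containing 0.1% formic acid and dead and dwell volumes of 40 μL and 900 μL. Retention time was read from adduct peaks picked by computer and checked manually.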

| SMILES | RP-LC retention time |
| --- | --- |
| CCn1nccc1-c1cccc(-c2noc(-c3ccccn3)n2)c1 | 897 s |
| CCOc1ccc(-c2cc3c(=O)n(Cc4nc(-c5cccc(C)c5)no4)ncn3n2)cc1 | 1210 s |
| Cc1sc(NC(=O)Cc2csc(-c3ccccc3)n2)nc1-c1ccc(Br)cc1 | 1270 s |
| O=C(Cc1ccc(Br)cc1)N1CCN(c2cc(-c3ccc(Cl)cc3)[nH]n2)CC1 | 953 s |
| COc1ccc(Cl)cc1NC(=O)NCC(c1cccnc1)c1c[nH]c2ccccc12 (stereo not drawn) | 728 s |
| COc1ccc(-c2cn3c(CC(=O)NCCc4cccs4)csc3n2)cc1OC | 692 s |
| CCOC(=O)c1c(C)c(CCC(=O)NC2CCCCC2)n(C)c1C | 892 s |
| O=C(Nc1ccc(F)cc1)OC1CCCC(NC(=O)c2ccc(Br)o2)C1 (stereo not drawn) | 853 s |
| O=C(Nc1nnc2n1CCS2)c1c(F)cccc1F | 584 s |
| CC(C)(C)NC(=O)N1CCCC1c1noc(COc2ccc(F)cc2)n1 (stereo not drawn) | 894 s |
| CN(C)CCCN1c2ccccc2Sc2ccc3ccccc3c21 | 772 s |
| COc1ccc2c(c1)C=C(C(=O)NCC(=O)c1cccs1)C=CO2 | 879 s |
| CCN1C(=O)COc2ccc(-c3noc(-c4cccc(Br)c4)n3)cc21 | 1280 s |
| CCOC(=O)c1cccc(NC2=NS(=O)(=O)C(c3ccc(F)cc3)=C2C)c1 | 927 s |
| O=C(Cn1ccn2nc(-c3ccc(F)cc3)c(CO)c2c1=O)Nc1ccc(Cl)cc1F | 909 s |
| CC(=O)N1CCc2cc(N3CC(C(=O)Nc4ccc(C)cc4)CC3=O)ccc21 (stereo not drawn) | 720 s |
| Cc1ccc(-c2cc(NC(=O)c3cccc(N(C)C)c3)on2)s1 | 1050 s |
| Cc1ccc2c(c1)OCC(=O)N2Cc1nc(-c2cccc(F)c2)no1 | 1070 s |
| CC(C)CC(=O)N1CCC(COc2ccc(C(=O)NC(C)C)cc2)CC1 | 801 s |
| COc1ccc(S(=O)(=O)Nc2cc(-c3cn4cccc(C)c4n3)ccc2C)cc1OC | 662 s |
| Cc1cccc(-c2ncccc2CNS(=O)(=O)Cc2ccc(Cl)cc2)c1 | 765 s |
| Cc1ccccc1OCC(=O)N1C[C@@H]2C[C@H](NC(=O)c3ccccc3)[C@H]1C2 | 813 s |
| COc1ccc(OCc2nnc3sc(-c4ccccn4)nn23)cc1 | 823 s |
| C=CCN(CC=C)S(=O)(=O)c1ccc(C(=O)Nc2nnc(CSC)o2)cc1 | 764 s |
| COc1ccc(S(=O)(=O)NCC2Cn3cccc3C(=O)N2C)cc1 (stereo not drawn) | 687 s |
| Cc1cccc(NC(=O)N2CCCC2c2cc(C)on2)c1 (stereo not drawn) | 748 s |
| CCOC(=O)c1nc(Nc2ccc(C)cc2C)c2ccccc2n1 | 831 s |

| SMILES | RP-LC retention time |
| --- | --- |
| CCc1nc(N)n(CC(=O)Nc2ccc(F)cc2)c(=O)c1C | 634 s |
| O=S(=O)(Nc1ccc(F)cc1F)c1c[nH]c2ncccc12 | 722 s |
| CCc1nnc(NC(=O)C2CCN(C(=O)c3ccc(F)cc3)CC2)s1 | 679 s |
| O=C(Cc1cccc(F)c1)N1CCc2cc(-c3ccno3)ccc21 | 948 s |
| Cc1ccc(Nc2ncccc2S(N)(=O)=O)c(F)c1 | 840 s |
| CCOc1ccc(/C=C/C(=O)Nc2nc(-c3ccccc3)cs2)cc1 | 1140 s |
| Cc1ccc(Oc2cccc(C(=O)NCCNc3cc(-n4cccn4)ncn3)c2)nn1 | 615 s |
| CC12CC(NC(=O)N1c1cccc(C(=O)NCc3ccco3)c1)c1cc(Br)ccc1O2 (stereo not drawn) | 846 s |
| O=C(C1CCN(Cc2cnn(-c3ccccc3)c2-n2cccc2)CC1)N1CCN(c2ccccc2)CC1 | 750 s |
| COc1ccc(NC(=O)N2CCC(c3nc(C(=O)N(C)C)c(C)o3)CC2)cc1OC | 635 s |
| Cc1ccc(-n2nc3c(=O)n(C(C)C(=O)NCc4ccc5c(c4)OCO5)nc(C)c3c2C)cc1 (stereo not drawn) | 878 s |
| Cc1noc(COC2CCN(C(=O)c3ccccc3F)CC2)n1 | 818 s |
| Cc1noc(C)c1-c1ccc(S(=O)(=O)NCc2ccc3c(c2)OCO3)cc1 | 894 s |
| CCOc1ccccc1-c1csc(NC(=O)Cc2csc(-c3ccccc3)n2)n1 | 1240 s |
| O=c1c2ccc(O)cc2oc2cc(O)ccc12 | 612 s |
| COc1cc(CCNC(=O)c2c(N3CCCC3=O)c3cc(F)ccc3n2C)cc(OC)c1OC | 762 s |
| Cc1ccc(NC(=O)Nc2nccn(-c3cccc(Cl)c3)c2=O)cc1F | 1000 s |
| CCCCOc1ccc(C(=O)NCCc2cn3ccc(C)cc3n2)cc1 | 588 s |
| CN(C1CCc2nn(C)c(=O)n2CC1)S(=O)(=O)c1cccc(C#N)c1 (stereo not drawn) | 667 s |
| Cc1ccc(S(=O)(=O)N2CCCCC2c2nncn2C)cc1F (stereo not drawn) | 736 s |
| Cc1cccn2cc(-c3cccc(S(=O)(=O)N4CC(C)CC(C)C4)c3)nc12 (stereo not drawn) | 828 s |
| Cc1sc(-c2cc(C(F)(F)F)on2)cc1S(=O)(=O)N1CCCCCC1 | 1270 s |
| O=S(=O)(c1cccnc1)N1CCCCC1c1nncn1CC1CC1 (stereo not drawn) | 662 s |
| Cc1ccc(-c2noc(Cc3nc(-c4ccccc4)cs3)n2)cc1 | 1260 s |
| COc1ccc(CC(=O)Nc2ccc(-c3cn4ccc(C)nc4n3)cc2)cc1 | 639 s |
| Cc1noc(C)c1Cc1ccc(C(=O)NCc2nn(C)c3c2CN(C)CC3)o1 | 578 s |
| CC1=C(c2ccc(Cl)cc2)S(=O)(=O)N=C1N1CCCN(C(=O)c2cccs2)CC1 | 840 s |

Continued, values first:

| RP-LC retention time | SMILES |
| --- | --- |
| 807 s | COCCc1noc(C2Cc3ccccc3N2C(=O)NCc2ccco2)n1 (stereo not drawn) |
| 1160 s | Cc1cccc(NC(=O)Cn2nc(N3CCC(C)CC3)c3ccccc3c2=O)c1 |
| 854 s | O=C(NC1CCCCC1)c1nnc(-c2ccc(S(=O)(=O)N3CCOCC3)cc2)o1 |
| 649 s | c1cncc(CN2CCc3c(sc4ncnc(N5CCOCC5)c34)C2)c1 |
| 964 s | COc1ccccc1NC(=O)C1CCCN(S(=O)(=O)c2cc(-c3noc(C)n3)cs2)C1 (stereo not drawn) |
| 1150 s | Cc1ccc(Sc2nccnc2N2CCCC(C(=O)Nc3ccc(C)cc3C)C2)cc1 (stereo not drawn) |
| 972 s | O=C(Cn1cnc2c(sc3nc(-c4ccccc4)ccc32)c1=O)NC1CCCCC1 |
| 872 s | Cc1nc(-c2csc(S(=O)(=O)N3CCCC(C(=O)NCCc4cccs4)C3)c2)no1 (stereo not drawn) |
| 1050 s | O=C(CCCc1nc2ccccc2s1)N1CCC(CCOc2ccccc2)C1 (stereo not drawn) |
| 623 s | CCN(CCCNC(=O)C1CCCN(c2ncnc3c2nc2n3CCCCC2)C1)Cc1ccccc1 (stereo not drawn) |
| 893 s | COc1ccc(CCNC(=O)C2CCN(S(C)(=O)=O)c3cc(C)ccc3O2)cc1 (stereo not drawn) |
| 968 s | Cc1cc(C)cc(N2C(=O)CN(S(=O)(=O)c3ccccc3)CC2(C)C(=O)NC2CCCC2)c1 (stereo not drawn) |
| 610 s | Cn1c(N2CCCN(C(=O)CCn3c(C4CCCCC4)nc4ccccc43)CC2)cc(=O)n(C)c1=O |
| 685 s | O=C(c1cc(-c2cccnc2)n[nH]1)N1CCCC(C(=O)N2CCN(c3ccc(Cl)cc3)CC2)C1 (stereo not drawn) |
| 1050 s | Cc1sc(-c2noc(C3CCC3)n2)cc1S(=O)(=O)N1CCC(C(=O)N2CCCCC2)CC1 |
| 1120 s | CCn1cc(C(=O)NCc2ccccc2C)c(S(=O)(=O)N2CCSCC2)n1 |
| 596 s | CCOC(=O)CNC(=O)Nc1cc(F)c2nc(N3CCCCC3)ccc2c1 |

| RP-LC retention time | SMILES |
| --- | --- |
| 670 s | CCOC(=O)N1CCN(c2nc(Nc3ccc(OC)cc3)c3nccnc3n2)CC1 |
| 688 s | O=C(Nc1nccs1)C1CCCN(S(=O)(=O)c2c[nH]c(C(=O)N3CCCC3)c2)C1 (stereo not drawn) |
| 630 s | COc1ccc(NC(=O)N2CCC(CCOc3cccnc3)CC2)cc1 |
| 645 s | CCCNC(=O)C1CCN(c2ccc(SCC(=O)Nc3ccc(C)cc3)nn2)CC1 |
| 666 s | Cc1cccc(C)c1NC(=O)Cn1cnc2nc(N3CCC(C(=O)NC(C)C)CC3)sc2c1=O |
| 588 s | Cc1nn(CC(=O)NCCCN(C)Cc2ccccc2)c(=O)c2noc(C)c12 |
| 879 s | CCc1cccc(NC(=O)C2CCN(C(=O)c3ncn4c3COC(c3ccccc3)C4)CC2)c1 (stereo not drawn) |
| 623 s | O=C(COc1ccccc1)N1CCN(c2nc(CN3CCCC3)cs2)CC1 |
| 691 s | CCCNc1cc(N2CCCC(CCC(=O)Nc3ccc4c(c3)OCO4)C2)ncn1 (stereo not drawn) |
| 731 s | CCC1CCCCN1C(=O)c1cnc2nc(C)ccc2c1Nc1cc(Cl)ccc1OC (stereo not drawn) |
| 693 s | Cc1cc(NC(=O)C2CCN(c3cc(N4CCCC4)ncn3)CC2)ccc1F |
| 850 s | CCN(C(=O)Cn1cnc2nc3c(cc2c1=O)CCCC3)c1cccc(Cl)c1 |
| 770 s | O=C(O)CCC1CCCN(S(=O)(=O)c2ccccc2)C1 (stereo not drawn) |
| 920 s | O=C(Nc1ccc(F)cc1)C1CCN(S(=O)(=O)c2cc(C(=O)N3CCCCCC3)cs2)CC1 |
| 798 s | CC(=O)Nc1ccc(-c2noc(C3CCCN(C(=O)CCc4c[nH]c5ccccc45)C3)n2)cc1 (stereo not drawn) |
| 773 s | COC(=O)c1cc(S(=O)(=O)N2CCCC2C(=O)Nc2cccc(C)n2)cn1C (stereo not drawn) |
| 1010 s | CC1(C)CC(=O)c2cn(-c3ccccc3)c(=O)c(C(=O)NC3CCCCC3)c2C1 |
